Laboratory results from BigSolDB 2.1.

c1ccc2oc(CSCc3nc4ccccc4o3)nc2c1
Conditions	solubility (mole fraction)
in chlorobenzene, 274.85 K	0.00424
in chlorobenzene, 278.15 K	0.00514
in chlorobenzene, 283.15 K	0.00684
in chlorobenzene, 287.95 K	0.00889
in chlorobenzene, 292.95 K	0.0119
in chlorobenzene, 298.35 K	0.0157
in chlorobenzene, 303.25 K	0.0205
in chlorobenzene, 308.15 K	0.0262
in chlorobenzene, 313.25 K	0.0341
in chlorobenzene, 318.05 K	0.0427
in ethanol, 274.15 K	0.00741
in ethanol, 278.15 K	0.00978
in ethanol, 283.15 K	0.014
in ethanol, 288.35 K	0.02
in ethanol, 291.15 K	0.0236
in ethanol, 293.15 K	0.0279
in ethanol, 295.55 K	0.0318
in ethanol, 298.15 K	0.0377
in ethanol, 300.25 K	0.0435
in ethanol, 302.95 K	0.052
in ethanol, 305.15 K	0.0578
in ethanol, 308.15 K	0.0704
in isopropanol, 278.15 K	0.00231
in isopropanol, 283.15 K	0.00333
in isopropanol, 289.15 K	0.00523
in isopropanol, 293.15 K	0.00703
in isopropanol, 298.15 K	0.0105
in isopropanol, 303.15 K	0.014
in isopropanol, 308.15 K	0.0194
in isopropanol, 313.15 K	0.0268
in isopropanol, 318.15 K	0.0372
in isopropanol, 323.15 K	0.051
in n-butanol, 278.35 K	0.00349
in n-butanol, 283.15 K	0.00494
in n-butanol, 288.15 K	0.00698
in n-butanol, 293.25 K	0.00986
in n-butanol, 298.15 K	0.0142
in n-butanol, 303.25 K	0.0199
in n-butanol, 308.15 K	0.0271
in n-butanol, 313.25 K	0.0372
in n-butanol, 318.15 K	0.0516
in n-butanol, 323.15 K	0.0679
in o-xylene, 273.35 K	0.000297
in o-xylene, 278.15 K	0.000431
in o-xylene, 283.15 K	0.00064
in o-xylene, 287.95 K	0.000899
in o-xylene, 293.05 K	0.00138
in o-xylene, 298.15 K	0.00203
in o-xylene, 303.15 K	0.00305
in o-xylene, 308.35 K	0.00443
in o-xylene, 313.15 K	0.00656
in o-xylene, 318.15 K	0.00904
in toluene, 274.15 K	0.000608
in toluene, 278.15 K	0.000971
in toluene, 283.15 K	0.00176
in toluene, 288.15 K	0.00306
in toluene, 293.15 K	0.00522
in toluene, 298.15 K	0.00861
in toluene, 303.15 K	0.0139
in toluene, 308.15 K	0.024
in toluene, 313.25 K	0.0292
in toluene, 318.15 K	0.0413
